Consider 40 compounds from patent US12685312B2, “Sulfonamide apyrase inhibitors” (Texas Crop Science, Inc., priority 2022, dated 2026).

The subject of this experiment is apyrase. Nature of the experiment: Screen for apyrase inhibitors (Method 1, in vitro phosphate-release absorbance assay). Particulars: inhibitor conc at 1 mM stock, 1 hr room temperature, absorbance 630 nm; rounded average of two assay results. The format is biochemical. An outline of the steps:
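Phosphate-release colorimetric assay (Windsor method) in 60 mM Hepes, 3 mM MgCl2, 3 mM CaCl2, 3 mM ATP, pH 6.5, with compound or DMSO control added. Released phosphate developed with ammonium molybdate and ascorbic acid/TCA, then stopped with citrate/acetic acid.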
Take `O=C(NCC(=O)N1CCCCC1)c1cccc(S(=O)(=O)Nc2ccc(Br)cc2)c1` [I-281, 3-(N-(4-bromophenyl)sulfamoyl)-N-(2-oxo-2-(piperidin-1-yl)ethyl)benzamide]: the “% Inhibition of Apyrase” value was 39%. In the case of `O=C(c1cccc(S(=O)(=O)Nc2ccc(OCc3ccccc3)cc2)c1)N1CCc2ccccc21` [I-521, N-(4-(benzyloxy)phenyl)-3-(indoline-1-carbonyl)benzenesulfonamide] it was 56%; in that of `COc1ccc(NS(=O)(=O)c2ccc(NC(=O)c3ccccc3OC(F)F)cc2)cc1OC` [I-996, 2-(difluoromethoxy)-N-(4-(N-(3,4-dimethoxyphenyl)sulfamoyl)phenyl)benzamide], 46%. In the case of `COc1ccc(N(C)S(=O)(=O)c2cccc(C(=O)Nc3ccc(Br)cc3)c2)cc1` [I-267, N-(4-bromophenyl)-3-(N-(4-methoxyphenyl)-N-methylsulfamoyl)benzamide] it was 58%; in that of `Cc1ccccc1NS(=O)(=O)c1ccc(C(=O)Nc2ccc(Cl)cc2)cc1` [I-411, N-(4-chlorophenyl)-4-(N-(o-tolyl)sulfamoyl)benzamide], 21%. Next, `COc1ccc(Cl)cc1NS(=O)(=O)c1cccc(C(=O)Nc2ccc(N(C)C)nc2)c1` [I-599, 3-(N-(5-chloro-2-methoxyphenyl)sulfamoyl)-N-(6-(dimethylamino)pyridin-3-yl)benzamide]: 30%; `O=C(Nc1ccc(S(=O)(=O)Nc2ccccc2Cl)cc1)c1ccc(C(F)(F)F)cc1` [I-971, N-(4-(N-(2-chlorophenyl)sulfamoyl)phenyl)-4-(trifluoromethyl)benzamide]: 67%; `O=C(Nc1ccc(F)c([N+](=O)[O-])c1)c1ccc(S(=O)(=O)Nc2ccc(Cl)cc2)cc1` [I-4, 4-(N-(4-chlorophenyl)sulfamoyl)-N-(4-fluoro-3-nitrophenyl)benzamide]: 73%.

Regarding `COc1ccc([N+](=O)[O-])cc1NS(=O)(=O)c1ccc(C(=O)Nc2ccc(Cl)cc2)cc1` [I-382, N-(4-chlorophenyl)-4-(N-(2-methoxy-5-nitrophenyl)sulfamoyl)benzamide], the “% Inhibition of Apyrase” value is 69%. Next, `O=C(Nc1cccc(C(F)(F)F)c1)c1cccc(NS(=O)(=O)c2ccc(Br)c(C(=O)O)c2)c1` [I-322, 2-bromo-5-(N-(3-((3-(trifluoromethyl)phenyl)carbamoyl)phenyl)sulfamoyl)benzoic acid]: 47%. As to `COc1cc(NC(=O)c2cccc(S(=O)(=O)Nc3ccc4c(c3)OCO4)c2)cc(OC)c1` [I-257, 3-(N-(benzo[d][1,3]dioxol-5-yl)sulfamoyl)-N-(3,5-dimethoxyphenyl)benzamide], the “% Inhibition of Apyrase” value was determined as 61%.

As to `C#Cc1cccc(NC(=O)c2ccccc2S(=O)(=O)N(C)c2ccccc2)c1` [I-352, N-(3-ethynylphenyl)-2-(N-methyl-N-phenylsulfamoyl)benzamide], the “% Inhibition of Apyrase” value is recorded as 48%.

As to `CC(=O)c1ccccc1NC(=O)c1cccc(S(=O)(=O)N2c3ccccc3CC2C)c1` (stereo not shown) [I-610, N-(2-acetylphenyl)-3-((2-methylindolin-1-yl)sulfonyl)benzamide], the “% Inhibition of Apyrase” value is given as 4%. Consider `O=C1CN(S(=O)(=O)c2ccc(Cl)cc2)c2ccccc2N1` [I-829, 4-((4-chlorophenyl)sulfonyl)-3,4-dihydroquinoxalin-2(1H)-one], for which the “% Inhibition of Apyrase” value amounted to 63%. In the case of `O=C(Nc1ccccc1Cl)c1cccc(S(=O)(=O)N2CCc3ccccc32)c1` [I-604, N-(2-chlorophenyl)-3-(indolin-1-ylsulfonyl)benzamide] it was 23%; in that of `O=C(/C=C/c1cccc(Cl)c1)Nc1cccc(S(=O)(=O)Nc2ccc(Br)cc2)c1` [I-329, (E)-N-(3-(N-(4-bromophenyl)sulfamoyl)phenyl)-3-(3-chlorophenyl)acrylamide], 65%; in that of `O=C(Nc1ccc2c(c1)OCO2)c1ccc(NS(=O)(=O)c2ccc(F)cc2)cc1` [I-939, N-(benzo[d][1,3]dioxol-5-yl)-4-((4-fluorophenyl)sulfonamido)benzamide], 50%.

Take `O=C(Nc1cccc(S(=O)(=O)Nc2cccc(C(F)(F)F)c2)c1)c1cc2ccccc2o1` [I-715, N-(3-(N-(3-(trifluoromethyl)phenyl)sulfamoyl)phenyl) benzofuran-2-carboxamide]: the “% Inhibition of Apyrase” value is listed as 58%.

Take `O=C(Nc1cccc(S(=O)(=O)Nc2ccc(Cl)cc2)c1)c1ccc(Cl)nc1` [I-764, 6-chloro-N-(3-(N-(4-chlorophenyl)sulfamoyl)phenyl)nicotinamide]: the “% Inhibition of Apyrase” value is recorded as 15%. For `O=C(Nc1cccc(C(F)(F)F)c1)c1cccc(NS(=O)(=O)c2cccs2)c1` [I-642, 3-(thiophene-2-sulfonamido)-N-(3-(trifluoromethyl)phenyl)benzamide], the “% Inhibition of Apyrase” value is on record as 55%.

For the compound `O=C(Nc1ccc(S(=O)(=O)Nc2ccccc2Cl)cc1)c1ccc(Cl)c(Cl)c1` [I-982, 3,4-dichloro-N-(4-(N-(2-chlorophenyl)sulfamoyl)phenyl)benzamide], the “% Inhibition of Apyrase” value is 57%. For `O=C(Nc1ccc(SC(F)F)cc1)c1ccccc1S(=O)(=O)N1CCCCC1` [I-353, N-(4-((difluoromethyl)thio)phenyl)-2-(piperidin-1-ylsulfonyl)benzamide], the “% Inhibition of Apyrase” value is 44%. Next, `COc1ccccc1NC(=O)c1ccc(NS(=O)(=O)c2cccc(Cl)c2Cl)cc1` [I-943, 4-((2,3-dichlorophenyl)sulfonamido)-N-(2-methoxyphenyl)benzamide]: 48%.

Consider `O=C(Nc1[nH]ncc1-c1ccccc1)c1cccc(NS(=O)(=O)c2ccc(F)c(F)c2)c1` [I-657, 3-((3,4-difluorophenyl)sulfonamido)-N-(4-phenyl-1H-pyrazol-5-yl)benzamide], for which the “% Inhibition of Apyrase” value came to 34%. In the case of `N#Cc1cccc(NC(=O)c2ccc(NS(=O)(=O)c3ccc(Br)cc3)cc2)c1` [I-928, 4-((4-bromophenyl)sulfonamido)-N-(3-cyanophenyl)benzamide] it was 56%. On to `O=C(Nc1cccc(S(=O)(=O)N2CCOCC2)c1)c1ccc(S(=O)(=O)Nc2ccc(Cl)cc2)cc1` [I-393, 4-(N-(4-chlorophenyl)sulfamoyl)-N-(3-(morpholinosulfonyl)phenyl)benzamide], for which the “% Inhibition of Apyrase” value came out at 57%. Regarding `Cc1ccc(NC(=O)c2cccc(S(=O)(=O)N3CCc4ccccc43)c2)c(OCC2CCCO2)c1` (stereo not shown) [I-552, 3-(indolin-1-ylsulfonyl)-N-(4-methyl-2-((tetrahydrofuran-2-yl)methoxy)phenyl)benzamide], the “% Inhibition of Apyrase” value is listed as 53%. In the case of `O=C(Nc1cccc(S(=O)(=O)Nc2ccc(Cl)cc2)c1)c1cc2c(s1)CCCC2` [I-709, N-(3-(N-(4-chlorophenyl)sulfamoyl)phenyl)-4,5,6,7-tetrahydrobenzo[b]thiophene-2-carboxamide] it was 61%; in that of `COc1ccc(NS(=O)(=O)c2ccc(NC(=O)c3ccc(F)cc3)cc2)cc1` [I-1002, 4-fluoro-N-(4-(N-(4-methoxyphenyl)sulfamoyl)phenyl)benzamide], 3%.

`CC1Cc2ccccc2N1S(=O)(=O)c1cccc(C(=O)Nc2cccc(Oc3ccccc3)c2)c1` (stereo not shown) [I-487, 3-((2-methylindolin-1-yl)sulfonyl)-N-(3-phenoxyphenyl)benzamide]: the “% Inhibition of Apyrase” value is 58%.

For the compound `COc1ccc(C(C)(C)C)cc1NC(=O)c1ccc(S(=O)(=O)N(C)c2ccccc2OC)cc1` [I-873, N-(5-(tert-butyl)-2-methoxyphenyl)-4-(N-(2-methoxyphenyl)-N-methylsulfamoyl)benzamide], the “% Inhibition of Apyrase” value amounted to 56%. `O=C(Nc1cccc(OC(F)F)c1)c1cccc(S(=O)(=O)Nc2cccc(C(F)(F)F)c2)c1` [I-1007, N-(3-(difluoromethoxy)phenyl)-3-(N-(3-(trifluoromethyl)phenyl)sulfamoyl)benzamide]: the “% Inhibition of Apyrase” value is listed as 33%. As to `CC1Cc2ccccc2N1C(=O)c1cccc(S(=O)(=O)N(C)c2cccc(Cl)c2)c1` (stereo not shown) [I-464, N-(3-chlorophenyl)-N-methyl-3-(2-methylindoline-1-carbonyl)benzenesulfonamide], the “% Inhibition of Apyrase” value is recorded as 59%.

Take `COc1ccc(S(=O)(=O)N2CCc3ccccc32)cc1C(=O)Nc1ccc(Br)c(C)c1` [I-471, N-(4-bromo-3-methylphenyl)-5-(indolin-1-ylsulfonyl)-2-methoxybenzamide]: the “% Inhibition of Apyrase” value is 59%. Next, `Cc1ccc(S(=O)(=O)Nc2cccc(C(=O)Nc3nc4ccccc4[nH]3)c2)cc1F` [I-649, N-(1H-benzo[d]imidazol-2-yl)-3-((3-fluoro-4-methylphenyl)sulfonamido)benzamide]: 50%. In the case of `O=C(Nc1ccc(S(=O)(=O)N2CCc3ccccc32)cc1)c1cccc([N+](=O)[O-])c1` [I-980, N-(4-(indolin-1-ylsulfonyl)phenyl)-3-nitrobenzamide] it was 58%; in that of `O=C(Nc1ccc(F)c(F)c1)c1cccc(S(=O)(=O)N2CCc3ccccc32)c1` [I-472, N-(3,4-difluorophenyl)-3-(indolin-1-ylsulfonyl)benzamide], 59%. `O=C(Nc1nccs1)c1cccc(NS(=O)(=O)c2ccc3c(c2)OCCO3)c1` [I-660, 3-((2,3-dihydrobenzo[b][1,4]dioxine)-6-sulfonamido)-N-(thiazol-2-yl)benzamide]: the “% Inhibition of Apyrase” value amounted to 29%. In the case of `CCOc1ncccc1C(=O)Nc1cccc(S(=O)(=O)Nc2ccccc2OC)c1` [I-757, 2-ethoxy-N-(3-(N-(2-methoxyphenyl)sulfamoyl)phenyl) nicotinamide] it was 29%; in that of `COc1ccc(S(=O)(=O)N2CCc3ccccc32)cc1C(=O)Nc1ccc(C)c(C)c1` [I-593, N-(3,4-dimethylphenyl)-5-(indolin-1-ylsulfonyl)-2-methoxybenzamide], 38%.
